Here are results for one compound from patent publication US11207301B2, “Sphingosine 1 phosphate receptor agonists for neuroprotection” (RECEPTOS LLC, priority 2017, dated 2021).

Test [1] relates to cuprizone-induced mouse model of demyelination. The experiment in a line: Cuprizone-induced mouse model of demyelination / neuroprotection. Format: in vivo, C57BL/6 mice. To be noted: 1 mg/kg; vehicle 258±49.1, p<0.001. The text has this: The effect of a S1P receptor agonist on spinal cord axial demyelination or reduction in axonal breaks can be assessed by measuring concentration of neurofilament light chain (NfL) in the plasma. NfL is released to the plasma following axonal injury and degeneration. Histological examination of axons with antineurofilament H non-phosphorylated mouse antibody SMI-32 can also be used to assess axonal demyelination or breaks. NfH is phosphorylated in healthy axons and unphosphorylated in damaged axons. In addition, the effects of ozanimod on the CNS were examined in vivo using the cuprizone-induced mouse model of demyelination and in vitro in primary rodent astrocytes. Efficacy of ozanimod or compound (2-R) was examined in the cuprizone-induced mouse model of neuroprotection. C57BL/6 mice were treated with cuprizone (0.3% weight/weight orally) and rapamycin (10 mg/kg intraperitoneally daily) to demyelinate axons in the brain and concurrently treated with ozanimod (0.1, 0.3, or 1 mg/kg) or compound (2-S) (1 mg/kg) by daily oral gavage to investigate its neuroprotective activity. Neuroprotection was assessed through examination of axonal pathology in the corpus callosum using SMI-32 (antineurofilament H non-phosphorylated mouse monoclonal antibody) staining, functional assessment through kinematic gait analysis and the plasma biomarker neurofilament light chain (NfL). Further, direct activity of ozanimod was examined in resting and activated primary rodent astrocytes in vitro.

The next test addresses T1, Recombinant human MAO-B (Homo sapiens, UniProt P27338).
T1 construct: purchased Sigma-Aldrich M7441; host or cells: baculovirus infected insect cells
T1 sequence (P27338 1-520): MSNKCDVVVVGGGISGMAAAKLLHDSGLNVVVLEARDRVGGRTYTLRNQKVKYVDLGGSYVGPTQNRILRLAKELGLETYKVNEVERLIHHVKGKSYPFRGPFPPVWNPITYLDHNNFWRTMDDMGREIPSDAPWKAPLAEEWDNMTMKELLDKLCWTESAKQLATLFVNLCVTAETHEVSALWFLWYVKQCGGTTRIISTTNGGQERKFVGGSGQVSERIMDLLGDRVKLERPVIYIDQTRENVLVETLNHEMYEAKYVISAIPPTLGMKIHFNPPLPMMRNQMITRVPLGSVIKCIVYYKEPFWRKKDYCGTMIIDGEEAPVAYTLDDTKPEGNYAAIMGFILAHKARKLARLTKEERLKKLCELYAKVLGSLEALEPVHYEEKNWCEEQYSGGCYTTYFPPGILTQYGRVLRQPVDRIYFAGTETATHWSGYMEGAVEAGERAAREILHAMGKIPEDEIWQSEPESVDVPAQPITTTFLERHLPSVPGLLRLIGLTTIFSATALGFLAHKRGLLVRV
The experiment in a line: MAO-B inhibition, conversion of kynuramine to 4-hydroxyquinoline. It is filed as biochemical. The method, then: (§1) The effect of a S1P receptoragonist on MAO-B activity can be assessed by measuring the inhibition of conversion of substrate kynuramine to 4-hydroxyquinoline as described in Example 4.
(§2) Compound 1 and Compound 2-S were evaluated for their ability to inhibit MAO-A and MAO-B. Inhibition of the conversion of kynuramine, a substrate for MAO-A and MAO-B, to 4-hydroxyquinoline was used to assess the inhibitory potential of Compound 1 and Compound 2-S. Recombinant human MAO-A (product number M7316) and MAO-B (product number M7441) expressed in baculovirus infected insect cells were obtained from Sigma-Aldrich, Saint Louis, Mo. USA were used as a source of purified MAOs.
(§3) Recombinant MAO-A (0.01 mg/mL, final concentrations) and MAO-B (0.02 mg/mL, final concentration) were diluted to desired concentrations in 100 mM potassium phosphate buffer (pH 7.4) containing 5 mM MgCl2. The diluted protein fractions were preincubated with various concentrations of each test compound at 37° C. for 2 min. The concentrations used were 100, 33, 10, 3.3, 1.0, 0.33 μM and acetonitrile/DMSO as vehicle control for MAO-A and 1.0, 0.3, 0.1, 0.03, 0.01, 0.003 μM and acetonitrile/DMSO as vehicle control for MAO-B. The reaction was started by addition of kynuramine to the incubation mixture. The final concentration of kynuramine was 40 μM for MAO-A and 25 μM for MAO-B. The total incubation volume was 0.250 mL. This concentration was selected to be close to the Km values of MAO-A (Km 42 μM) and MAO-B (Km 26 μM). After 10 min of incubation, aliquots (100 μL) of the reaction mixture were taken and added to 200 μL acetonitrile containing 0.5 μM IS (acetaminophen). The reaction product, 4-hydroxyquinoline was analyzed by LC-MS/MS as described below.
MS characterization and detection of kynuramine and 4-hydroxyquinoline was performed using ABI 4000 Sciex QTrap mass spectrometer utilizing a Turbo Spray. The mass spectrometer was controlled by Analyst v1.6.2. The ESI was operated in a positive ion mode and the experimental parameters were set as follows: ion spray voltage, 2000; source temperature, 550° C.; curtain gas, 20; collision gas, medium ion source gas 1, 55; ion source gas 2, 50. […]
(§4) The gradient system was used to separate the analytes with a flow rate of 0.5 ml/min using mobile phase A, water containing 0.1% formic acid and mobile phase B, acetonitrile containing 0.1% formic acid. […] The analytes were monitored using multiple reaction monitoring and the ion transitions (Q1/Q3) were as follows: 4-hydroxyquinoline 146/104 (collision energy, CE was 27; declustering potential, DP, 50, and IS (acetaminophen), 152/110 (collision energy, CE was 27; declustering potential, DP, 50). All data were analyzed using AB Sciex Analyst v1.6.2 software.

In the next test the target is T2, Recombinant human MAO-A (Homo sapiens, UniProt P21397).
T2 construct: purchased Sigma-Aldrich M7316; host or cells: baculovirus infected insect cells
T2 sequence (P21397 1-527): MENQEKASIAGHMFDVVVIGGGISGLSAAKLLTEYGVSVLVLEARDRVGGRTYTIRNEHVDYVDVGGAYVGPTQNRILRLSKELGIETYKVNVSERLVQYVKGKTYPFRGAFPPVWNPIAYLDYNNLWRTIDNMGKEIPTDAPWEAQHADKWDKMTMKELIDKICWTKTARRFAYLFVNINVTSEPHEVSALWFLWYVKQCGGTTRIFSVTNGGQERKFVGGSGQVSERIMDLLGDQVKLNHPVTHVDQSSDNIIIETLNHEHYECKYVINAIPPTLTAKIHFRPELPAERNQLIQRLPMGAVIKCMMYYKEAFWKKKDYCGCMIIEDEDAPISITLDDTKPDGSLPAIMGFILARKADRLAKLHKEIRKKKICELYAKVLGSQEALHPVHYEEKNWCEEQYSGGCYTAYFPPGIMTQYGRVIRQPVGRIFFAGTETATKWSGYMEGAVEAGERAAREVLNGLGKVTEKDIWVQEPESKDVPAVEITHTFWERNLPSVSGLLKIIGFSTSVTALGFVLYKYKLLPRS
Description: MAO-A inhibition, conversion of kynuramine to 4-hydroxyquinoline. Format: biochemical. The method, then:
as §1, §2
as §3, with “This concentration was selected to be close to the Km values of MAO-A (Km 42 μM) and MAO-B (Km 26 μM). After 10 min of incubation, aliquots (100 μL) of the reaction mixture were taken and added to 200 μL acetonitrile containing 0.5 μM IS (acetaminophen).” left out, “below. […]” for “below.”
as §4

SMILES strings stand for the structures.

With `CC(C)Oc1ccc(-c2nc(-c3cccc4c3CC[C@@H]4N)no2)cc1C#N` [Compound 2-S], the “plasma biomarker NfL” value in test [1] stood at 127 ± 12.2 pg/mL. The “MAO-B inhibition (in words)” value on Recombinant human MAO-B was “inhibitory activity”. Moreover, the IC50 came to 32 nM on Recombinant human MAO-B (kynuramine 25 μM, 10 min incubation) and 1200 nM at Recombinant human MAO-A (kynuramine 40 μM, 10 min incubation). For the same compound, at Recombinant human MAO-A (tested up to 100 μM), the “MAO-A inhibition (in words)” value is on record as “inhibitory activity”.

For orientation: IC50 means the concentration that inhibits the measured activity by half.
